One assay has as its system IL-1β mRNA. Kind of assay: Cytokine mRNA expression inhibitory ability, IL-1β, LPS-treated Raw264.7 cells. The assay is classed as cell-based. The settings on record: 1 μM compound 24 hours, then 100 ng/ml LPS 24 hours. The protocol:
(§1) Evaluation of cytokine mRNA expression inhibitory ability according to inflammatory response
(§2) In order to identify inhibition of p-p38 MAPK, inhibition of p38 MAPK was identified after treating each compound to Raw264.7 cells obtained by converting macrophages that induces inflammation according to p-p38 MAPK activity cancerous cells. Briefly, Raw264.7 cells were cultured in Dulbecco's modified Eagle Medium supplemented with 10% fetal bovine serum and penicillin/streptomycin (100 U/ml). Raw264.7 cells were treated with 1 μM of Compounds 1 to 5 according to the present disclosure in a culture dish respectively and cultured for 24 hours in a CO2 incubator, and then treated with 100 ng/ml of LPS, followed by additional culture for 24 hours in a CO2 incubator.
(§3) After cell culture was terminated according to the experimental conditions, cells were washed with cold phosphate buffered saline (PBS). The cells were then collected and centrifuged at 1200 rpm for 3 minutes. RNA was extracted according to the method provided in the Hybrid-R total RNA purification kit (GeneAll, 305-101). After measuring the concentration and purity of RNA using Nanodrop, cDNA was synthesized according to the method provided in TOPscript RT DryMIX (Enzynomics, RT200). After a reaction at 95° C. for 3 minutes using SYBR Green Mix along with primer, cDNA was subjected to repetitive reactions 30 times at 95° C. for 10 seconds, at 55° C. for 10 seconds, and at 72° C. for 30 seconds to determine the RNA expression level. The results are shown in Tables 5 and 6 below and FIGS. 1 and 2.

The target of another assay is p-p38 MAPK (Mus musculus (Mouse), UniProt P47811). Kind of assay: p38 MAPK protein inhibitory ability in cells (p-p38 immunoblot, LPS-treated Raw264.7). Format: cell-based. The settings on record: Raw264.7 cells, 1 μM compound 24 hours, then 100 ng/ml LPS 6 hours. The protocol:
Evaluation of p38 MAPK protein inhibitory ability in cells
as §2, with “Raw264.7 cells which are obtained by” for “Raw264.7 cells obtained by”, “MAPK activity into cancerous cells.” for “MAPK activity cancerous cells.”, “culture for 6 hours in” for “culture for 24 hours in”
After cell culture was terminated according to the experimental conditions, cells were washed with cold phosphate buffered saline (PBS). The cells were then collected and centrifuged at 1200 rpm for 3 minutes. The pellet was lysed with 2X sample buffer (1M Tris-HCl pH 6.8, 50% glycerol, 10% SDS, 2-mercaptoethanol, 1% bromophenol blue) and boiled at 100° C. for 10 minutes. The prepared protein samples were subjected to sodium dodecyl sulfate poly acrylamide gel electrophoresis and transferred to PVDF membrane (Millipore). For a specific binding reaction between the protein in the PVDF membrane and antibody, blocking was performed in a 5% bovine serum albumin (BSA, RMbio) solution. Subsequently, the BSA solution was discarded, and the membrane was washed with PBS-T (0.5% Tween 20 in PBS). The binding reaction of the protein in the membrane and antibody was performed overnight at 4° C. and washed again with PBS-T. Finally, a secondary antibody (Cell signaling Technology) conjugated with horse radish peroxidase (HRP) was diluted in PBS-T and reacted at room temperature for 2 hours. Luminata Forte HRP substrate (Millipore) was used to determine the amount of protein in the membrane, the results of which are shown in Table 4 below.
A general note: A western blot detects proteins with antibodies after separation by electrophoresis.

The subject of a further assay is TNFα. Kind of assay: TNFα inhibitory ability by cellular inflammatory response (supernatant, antibody-coated plate), Raw264.7 cells. Format: cell-based. The following applies: Mus musculus, 1 μM compound 24 hours, then 100 ng/ml LPS 24 hours, supernatant protein. The protocol:
Evaluation of TNFα inhibitory ability by cellular inflammatory response
as §2
After the cell culture was completed according to the experimental conditions, the supernatant was obtained and centrifuged for 3 minutes at 1200 rpm. The centrifuged supernatant was dispensed into an antibody-coated plate, reacted at room temperature for 2 hours, and washed with PBS-T (0.5% tween 20 in PBS). After dispensing detection antibody including HRP, a reaction was performed at room temperature for 1 hour, and the amount of protein was checked at a wavelength of 450 nm, the results of which are shown in Table 7 below.

The next assay concerns TNFα mRNA. In words: Cytokine mRNA expression inhibitory ability, TNFα, LPS-treated Raw264.7 cells. The settings on record: 1 μM compound 24 hours, then 100 ng/ml LPS 24 hours. Format: cell-based. The protocol: as §1, §2, §3
The next assay deals with p38 alpha (Homo sapiens (Human), UniProt Q16539). Kind of assay: p38α MAPK inhibitory ability (peptide/kinase mixture, development reagent, 445/520 nm). The assay is classed as biochemical. The settings on record: 1 hour at room temperature. The protocol: Evaluation of p38a mitogen-activated protein kinase (MAPK) inhibitory ability
To determine the ability to inhibit p38 MAPK, Compounds 1 to 5 were diluted to determine the inhibitory effect depending on a concentration. Briefly, the compounds were diluted at concentrations of 1000, 333, 111, 37.0, 12.3, 4.12, 1.37, 0.457, 0.152, and 0.0495 nM, respectively, and then a peptide/kinase mixture (final 7.07-28.3 ng p38 alpha, 2 μM serine/threonine 15, 50 mM HEPES pH 7.0, 0.01% NaN3) and ATP solution were added respectively. After reacting at room temperature for 1 hour, a development reagent was added, followed by a reaction again at room temperature for 1 hour.

4 compounds from patent publication US20240270713A1, “NOVEL COMPOUND EXHIBITING THERAPEUTIC EFFECT ON INFLAMMATORY DISEASE AS P38 MAP KINASE INHIBITOR” (PRAZERTHERAPEUTICS INC., priority 2021, published 2024) can be followed below.

The inhibition is the percentage by which the read-out fell short of the control. Higher therefore signals a strong effect. The IC50 is the concentration that inhibits the measured activity by half.

SMILES strings stand for the structures.

p-p38 MAPK, sequence (P47811 whole entry): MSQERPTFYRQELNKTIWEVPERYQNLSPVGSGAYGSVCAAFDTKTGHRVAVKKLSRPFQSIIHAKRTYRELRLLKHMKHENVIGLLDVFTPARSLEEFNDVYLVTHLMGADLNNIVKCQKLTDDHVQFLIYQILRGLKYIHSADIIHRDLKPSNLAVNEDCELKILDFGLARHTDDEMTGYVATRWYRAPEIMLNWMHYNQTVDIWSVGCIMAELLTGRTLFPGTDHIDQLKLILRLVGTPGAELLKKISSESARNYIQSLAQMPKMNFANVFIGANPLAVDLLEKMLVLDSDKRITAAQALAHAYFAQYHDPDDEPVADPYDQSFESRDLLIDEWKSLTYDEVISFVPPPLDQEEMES
p38 alpha, sequence (Q16539 whole entry): as the sequence (P47811 whole entry) above, with H48L, A263T counted along it

Turning to `Cc1c(F)cc(C(=O)NC2CC2)cc1-c1ccc(C(=O)c2ccc(OCC(O)CO)cc2)cn1` (centres unmarked) [Compound 1, N-cyclopropyl-3-(5-(4-(2,3-dihydroxypropoxy)benzoyl)pyridin-2-yl)-5-fluoro-4-methylbenzamide], the “IL-1β mRNA inhibition” value with IL-1β mRNA was determined as 21.4%. The inhibition at 1 µM is 11.3% against p-p38 MAPK and 22.1% in the assay on TNFα. Moreover, the “TNFα mRNA inhibition” value in the assay on TNFα mRNA was 38.1%. Also, the IC50 at p38 alpha amounted to 22.3 nM.
The corresponding values for `O=C(NC1CC1)c1ccc(Cl)c(-c2ccc(C(=O)c3c[nH]c4ccccc34)cc2)c1` [Compound 2, 6-chloro-N-cyclopropyl-4′-(1H-indole-3-carbonyl)-[1,1′-biphenyl]-3-carboxamide] are 24.4%, 69%, 68.5%, 37.6% and 34.1 nM.
`Cc1c(F)cc(C(=O)NC2CC2)cc1-c1ccc(C(=O)c2c[nH]c3cc(OCC(O)CO)ccc23)cn1` (centres unmarked) [Compound 3, N-cyclopropyl-3-(5-(6-(2,3-dihydroxypropoxy)-1H-indole-3-carbonyl)pyridin-2-yl)-5-fluoro-4-methylbenzamide]: in the assay with IL-1β mRNA, the “IL-1β mRNA inhibition” value stood at 12.3%. For the same compound, the inhibition at 1 µM on p-p38 MAPK is 39.7%; in the assay on TNFα it was 16.7%. For the same compound, the “TNFα mRNA inhibition” value with TNFα mRNA is 39.2%. For the same compound, the IC50 on p38 alpha was 34.3 nM.
With `Cc1c(F)cc(C(=O)NC2CC2)cc1-c1ccc(C(=O)c2cn(Cc3ccccc3)c3ccccc23)cn1` [Compound 5, 3-(5-(1-benzyl-1H-indole-3-carbonyl)pyridin-2-yl)-N-cyclopropyl-5-fluoro-4-methylbenzamide], in the assay on IL-1β mRNA, the “IL-1β mRNA inhibition” value was 3.2%. The inhibition at 1 µM at p-p38 MAPK is 52.8%; in the assay on TNFα, 23.8%. The “TNFα mRNA inhibition” value in the assay with TNFα mRNA was 4.1%. Further, the IC50 on p38 alpha was 193 nM.
